Measurements published in patent publication US9234025B2, “Extracellular allosteric inhibitor binding domain from a tyrosine kinase receptor” (SANOFI, priority 2009, dated 2016).

Experiments:
[1] = biological target: T1, FGFR2 (Homo sapiens, UniProt P21802); assay: FGF ligand binding to FGFR2 in intact cells; settings: receptor expressed in intact cells
T1 construct: or the expression of the entire intact receptor in its native environment

[2] = biological target: T2, hFGFR1IIIcα-Hemagluttinin (Homo sapiens, UniProt P11362); assay: FGFR1 phosphorylation in rat fat-pad endothelial cells; format: cell-based
T2 construct: expressed in transfected cells; host or cells: rat fat-pad endothelial cells (RFPEC)
T2 sequence (P11362 22-822): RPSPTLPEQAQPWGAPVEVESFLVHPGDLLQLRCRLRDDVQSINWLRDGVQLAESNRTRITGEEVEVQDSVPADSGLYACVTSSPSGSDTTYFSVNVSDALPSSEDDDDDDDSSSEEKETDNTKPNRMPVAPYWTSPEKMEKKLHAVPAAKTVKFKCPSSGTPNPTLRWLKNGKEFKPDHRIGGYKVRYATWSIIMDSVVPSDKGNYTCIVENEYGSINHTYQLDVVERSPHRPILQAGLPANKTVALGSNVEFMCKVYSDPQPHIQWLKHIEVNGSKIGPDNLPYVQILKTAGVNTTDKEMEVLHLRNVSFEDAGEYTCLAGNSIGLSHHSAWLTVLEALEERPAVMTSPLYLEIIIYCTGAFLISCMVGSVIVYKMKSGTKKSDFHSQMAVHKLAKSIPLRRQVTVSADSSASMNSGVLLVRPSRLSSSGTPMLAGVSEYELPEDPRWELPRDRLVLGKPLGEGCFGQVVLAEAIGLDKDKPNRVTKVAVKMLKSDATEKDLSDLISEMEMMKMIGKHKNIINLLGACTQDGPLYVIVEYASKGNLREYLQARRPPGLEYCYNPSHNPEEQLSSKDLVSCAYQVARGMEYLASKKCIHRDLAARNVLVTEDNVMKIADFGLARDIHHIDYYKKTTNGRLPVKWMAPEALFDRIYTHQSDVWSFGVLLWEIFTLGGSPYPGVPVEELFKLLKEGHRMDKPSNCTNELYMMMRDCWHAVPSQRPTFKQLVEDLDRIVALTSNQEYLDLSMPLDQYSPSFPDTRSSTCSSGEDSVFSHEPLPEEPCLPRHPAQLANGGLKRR
Protocol: Rat fat-pad endothelial cells, stably transfected with hFGFR1IIIcα-Hemagluttinin, were grown to 80-90% confluency and serum starved (0.5% FBS) for 24 h. Stimulation was performed during 5 minutes with FGF2 at 2 ng/ml in combination with SSR or DMSO (as control). Cell lysates were centrifuged at 12,000 g for 10 min, and the supernatants were collected. HA-tagged proteins were immunoprecipitated by incubation of cell lysates overnight at 4° C. in the presence of agarose conjugated anti-HA antibodies. Immune complexes were washed three times with 1 ml of lysis buffer; proteins were eluted via incubation with 50 μl of 2×SDS sample buffer and boiling. Proteins were separated on Novex polyacrylamide gels (Invitrogen, Carlsbad, Calif.) and subsequently transferred onto Hybond ECL nitrocellulose membranes (Amersham Pharmacia). Following incubation with 5% non-fat milk powder in PBS, the membranes were incubated overnight at 4° C. with the following antibodies: pFGFR (CST: 3471) and FGFR1 (CST: 3472).

[3] = biological target: T1, FGFR2; assay: FGFR2 multimerization; format: biochemical
[4] = test system: PANC02 cells; assay: PANC02 proliferation; format: cell-based; settings: 100 nM SSR; 100 ng/ml FGF7 with or without VEGF; FGFR2-IIIb
Protocol: Cell proliferation was analysed on exponentially growing cells that were starved for 16 hours in 100 μl RPMI 1640 (Invitrogen, 32404-014) with 0.2% FBS (Hyclone, SH30070.03), 2 mM glutamine, MEM non-essential amino-acid 1× (Gibco, 11140-035), MEM sodium pyruvate 1× (Gibco, 11360-039) and seeded at 4,000 cells/well in 96-well microplates. After exposure to mitogens and/or SSR for 72 hours, cell proliferation was assessed with the use of the CellTiter 96 AQueous One Solution Cell Proliferation Assay (Promega, Madison, Wis., USA) according to manufacturer's instructions. Cell migration was assessed by a modified Boyden chamber assay, by using 24-well inserts containing 8 μm pore size transwell permeable supports with a polycarbonate membrane (Costar, Corning Inc.). Exponentially growing cells were starved in 0.2% FBS containing medium for 16 hours and resuspended at 5×10^5 cells/ml in the same low serum medium. 100 μl of the cell suspension were seeded in the upper chamber, while chemoattractants and/or SSR were placed in the lower chamber. 10% FBS containing medium was used a positive control. After 6 hours incubation at 37° C., cells on the upper side of the membrane were scraped using a cotton swab, while migrated cells on the lower surface were fixed with 4% formaldehyde and nuclei stained with DAPI for quantification.

[5] = biological target: T3, TNF-R1 extracellular protein (Homo sapiens, UniProt P19438); assay: STD-NMR binding assay, TNF-R1 control; settings: STD-NMR specificity control
T3 construct: made in house
T3 sequence (P19438 30-211 limits assumed): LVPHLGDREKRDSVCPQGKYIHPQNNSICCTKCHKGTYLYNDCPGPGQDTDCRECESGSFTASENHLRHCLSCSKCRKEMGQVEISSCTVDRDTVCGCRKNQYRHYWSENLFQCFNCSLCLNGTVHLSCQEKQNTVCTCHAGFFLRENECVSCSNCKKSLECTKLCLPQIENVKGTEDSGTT

[6] = test system: FGFR2; assay: FRS2, Erk1/2 and PLCγ phosphorylation in FGFR2-transfected HEK293 cells (western blot); format: cell-based, human; settings: compound at 1 μM
Protocol: HEK293 cells were either transiently of stably transfected (using FuGENE 6, Roche) with hFGFR2IIIca or hFGFR2IIIca-Y328D cloned in pcDNA3 (Invitrogen). Stably transfected cells were grown in G418 (400 μg/ml) containing medium. Before stimulation, the cells were starved overnight in DMEM (0% serum), and pre-incubated with […] at the required concentration. The cells were subsequently stimulated with FGF2 (concentration between 0.5-10 ng/ml) for 5 min at 37° C. with or without SSR or SU5402 at 1 μM. After washing with ice-cold phosphate-buffered saline containing phosphatase inhibitors (Roche), cells were lysed in RIPA buffer (Tris 30 mM HCl pH 7.5, 150 mM NaCl, 1 mM EDTA, 1% triton-X, 0.5% w/v deoxycholate, containing phophatase and protease inhibitors as described by the manufacturer (Roche)). Cell lysates were centrifuged at 12,000 g for 10 min, and the supernatants were collected. Proteins were separated on Novex polyacrylamide gels (Invitrogen, Carlsbad, Calif.) and subsequently transferred onto Hybond ECL nitrocellulose membranes (Amersham Pharmacia). Following incubation with 5% non-fat milk powder in PBS, the membranes were incubated overnight at 4° C. with the following antibodies: phospho-ERK1/2 (CST:9101), phospho-FRS2 (CST:3861), phospho-PLCγ (CST:2821) and FGFR2 (F0300, Sigma).
In order to evaluate SSR effect on FGFR-controlled phosphor-signalling, HEK293 cells have been transfected with FGFR2 and the two main pathways following FGFR autophosphorylation, PLCγ and FRS2, have been studied by western blot in comparison with a published FGFR tyrosine kinase inhibitor SU5402 described to inhibit FGFR-dependent FRS2 and PLCγ cascades (Zhen et al., Oncogene 2007). In such cells, FGF induces FRS2, Erk1/2 and PLCγ phosphorylation. […] More generally, these differences in phosphorylation can be used as reporter to evaluate allosteric modulators.

[7] = biological target: FGFR2^∂23-Y328D (Homo sapiens, UniProt P21802, Y328D); assay: ITC, FGFR2 Y328D mutant; format: binding; design: FGFR2^∂23 (consisting of domain D2 and 3); made in house
Chain of FGFR2^∂23-Y328D (P21802 148-366 Y328D limits assumed): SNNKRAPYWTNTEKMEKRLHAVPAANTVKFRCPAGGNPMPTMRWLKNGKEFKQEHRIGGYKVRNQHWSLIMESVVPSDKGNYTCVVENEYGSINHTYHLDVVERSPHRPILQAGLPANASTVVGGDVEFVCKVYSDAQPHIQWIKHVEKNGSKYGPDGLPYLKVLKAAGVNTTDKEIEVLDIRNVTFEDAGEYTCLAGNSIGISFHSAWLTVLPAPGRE
Protocol: All calorimetric experiments were performed at 30° C. with a VP-ITC titration calorimeter (MicroCal Inc., Northampton, Mass.) as previously described^45. Titrations involved the addition of 10 μL aliquots of 1.25 mM SSR via a rotating stirrer-syringe to the solution cell containing 1.407 mL of the 10-20 μM interacting protein (i.e. FGFR2^∂123, FGFR2^∂23 and its described mutants and subdomains, FGFR3^∂123, FGF1, FGF2 and Follistatin (as negative control) at 4 min intervals. A constant stirring speed of 300 rpm was maintained and data were fitted to the standard noninteracting one site model supplied by MicroCal, with n fixed as 1.0. All measurements were performed in 10 mM HEPES pH7.2, 150 mM NaCl, and proteins were purified as previously described (Pellegrini et al., 2000). Mutagenesis was performed using the ‘site directed mutagenesis kit’ (Stratagene).
We next explored whether SSR bound to amino acid residues that form part of the orthosteric site in D3 or to an alternative allosteric site. Initially, we used the molecular docking algorithms of the software packages MOLEGRO, Autodock and YASARA and available crystallographic data. […] We also analyzed the FTIR spectrum of the aforementioned mutated FGFR2 fragments.

T1 sequence (P21802 22-821): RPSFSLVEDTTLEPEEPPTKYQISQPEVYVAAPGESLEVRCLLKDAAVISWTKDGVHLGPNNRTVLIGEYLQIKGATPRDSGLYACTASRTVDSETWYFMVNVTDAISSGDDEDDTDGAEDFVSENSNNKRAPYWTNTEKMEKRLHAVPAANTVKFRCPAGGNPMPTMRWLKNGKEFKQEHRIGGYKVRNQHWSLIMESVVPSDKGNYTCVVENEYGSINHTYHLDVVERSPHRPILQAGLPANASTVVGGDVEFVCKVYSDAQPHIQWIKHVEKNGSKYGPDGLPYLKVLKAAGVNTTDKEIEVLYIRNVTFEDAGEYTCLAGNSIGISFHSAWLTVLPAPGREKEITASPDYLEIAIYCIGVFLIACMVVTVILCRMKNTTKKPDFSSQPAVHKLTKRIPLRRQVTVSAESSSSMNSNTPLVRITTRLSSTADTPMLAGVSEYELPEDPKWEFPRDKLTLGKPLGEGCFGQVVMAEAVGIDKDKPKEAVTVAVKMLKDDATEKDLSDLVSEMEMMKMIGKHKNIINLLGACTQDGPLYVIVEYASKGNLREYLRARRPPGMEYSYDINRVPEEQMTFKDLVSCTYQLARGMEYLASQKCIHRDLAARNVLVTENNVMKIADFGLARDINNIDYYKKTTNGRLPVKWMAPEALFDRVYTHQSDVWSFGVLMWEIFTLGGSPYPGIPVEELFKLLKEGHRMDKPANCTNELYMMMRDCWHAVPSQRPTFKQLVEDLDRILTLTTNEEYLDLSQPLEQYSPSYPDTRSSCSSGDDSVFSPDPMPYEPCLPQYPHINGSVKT

COc1c(C)c(C(=O)c2ccc(N)c(C(=O)[O-])c2)n2ccccc12.[Na+] [SSR] was tested. Which “binding of FGF2 or FGF4 to FGFR2” value [1] did it give?
Its value is “failed to antagonize”.

What about the “FGF2-induced FGFR1 tyrosine phosphorylation” value ([2]; SSR in the nanomolar concentration range) of the same compound?
The value was “highly reduced”.

What about the “residual FGFR1 tyrosine phosphorylation” value ([2]; even at high doses) of the same compound?
The value was “does not completely eliminate FGFR1 tyrosine phosphorylation”.

And the “FGFR2 dimerization (multimerization)” value [3]?
The value was “not able to inhibit”.

And the “FGF7-induced PANC02 proliferation” value [4]?
The value was “blocked”.

And the “binding to TNF-R1 extracellular protein” value [5]?
The value was “no binding is observed”.

What about the “FGF-induced FRS2 phosphorylation” value [6] of the same compound?
The value was “only inhibits FRS2 pathway”.

And the “FGF-induced PLCγ phosphorylation” value [6]?
Its value is “doesn't inhibit”.

What about the “binding to FGFR2^∂23-Y328D” value [7] of the same compound?
Its value is “failed to bind”.
